For 44 molecules, IC50 results are on record in PubChem BioAssay AID2305 (GlaxoSmithKline (GSK), 2010).

The test system of the experiment is P. falciparum 3D7 growth, pLDH absorbance. Description: P. falciparum 3D7 growth inhibition, dose response, strain 3D7 (AID 2305).

On to `CCN1CCCC(Nc2ccnc3cc4ccccc4cc23)C1` (centres undefined), for which the IC50 (usually the point on the concentration scale where inhibition reaches its midpoint) was 100 nM. For `COc1cccc2cc(C(=O)N[C@@H](CC(C)C)C(=O)N[C@H](/C=N/N3CC(=O)NC3=O)CC(C)C)oc12`, the IC50 turned out to be 920 nM. Compared with the last molecule, the IC50 is about 9.2-fold higher. To `Cc1nn(-c2cccc(C(F)(F)F)c2)c2sc(C(=O)NC3CCN(C(C)C)CC3)cc12` belongs 900 nM; to `Cc1ccccc1C1CCN(c2ccc(C(=O)Nc3ccc(F)cc3)cn2)CC1`, 190 nM; to `c1ccc(Cn2nnnc2-c2cccc(Nc3ccnc4cc(-c5nccs5)ccc34)c2)cc1`, 830 nM.

`Cc1nc(-c2nc(N3CCC(O)CC3)ncc2-c2ccsc2)sc1C` gave an IC50 of 940 nM. To `Cc1cc(N(C)C)nc(Nc2ccc(NC(=O)c3c(F)cccc3F)cc2)n1` belongs 1380 nM; to `O=c1[nH]c2ccc(Nc3nccc(NCCc4ccccc4)n3)cc2[nH]1`, 1210 nM. The value for `COc1cc2c(cc1S(=O)(=O)c1ccc(NC(=O)c3cc4ccccc4s3)cc1)CCN(C)CC2` was 840 nM; that for `O=C(/C=C/c1ccc(Cl)c(Cl)c1)NCCCCCN1CCCC(CNC(=O)/C=C/c2ccccc2)C1` (centres undefined) was 790 nM; that for `CC[C@H]1CN2CC[C@H]1C[C@H]2[C@H](O)c1cc(-c2ccc(OC(F)(F)F)cc2)nc2ccc(OC)cc12` was 50 nM. In turn, `Nc1nc(N)c2c(ccc3c2ccn3CCCC2CCCNC2)n1` (centres undefined) displayed a 50% inhibitory concentration (IC50) of 900 nM. To `CCCCCCN=C(N)c1ccc2nc(-c3ccc(O)cc3)[nH]c2c1` belongs 190 nM; to `COc1ccc(-c2csc3nc(C)nc(Cl)c23)cc1OC`, 360 nM.

Consider `COc1cc2c(cc1OC)C(c1ccc(Br)cc1)CN(C)CC2` (centres undefined), for which the IC50 turned out to be 940 nM. This IC50 is about 2.6-fold higher than that of the molecule before. To `Cc1ccc(C2(CN3CCC(NC(=O)c4[nH]ncc4Cl)CC3)CCCCC2)cc1` belongs 320 nM; to `O=C(/C=C/c1ccc(Cl)c(Cl)c1)NCCC1CCC(N2CCC(c3c[nH]c4ccc(O)cc34)CC2)CC1` (centres undefined), 760 nM; to `CC1(C)CCC(C)(C)c2c1ccc(C1CCN(CCCCNC(=O)c3ccc(-c4ccc(C#N)cc4)cc3)CC1)c2O`, 230 nM. To `COc1ccccc1Cc1nc2ccccc2nc1SCC(=O)Nc1cccc(C(F)(F)F)c1` belongs 500 nM; to `CC(C)CNCc1cccc(-c2cccc(CN(CCN(C)C)C(=O)NCCc3ccccc3)c2)c1`, 690 nM. With `COc1ccc(CNCc2ccc(-c3cccc(-c4nc5ccc(C(F)(F)F)cc5[nH]4)c3)cc2)cc1`, the half-maximal inhibitory concentration (IC50) worked out at 150 nM. The value for `Fc1ccc2nc(-c3cccc(-c4cccc(CNCCN5CCNCC5)c4)c3)[nH]c2c1` was 840 nM; that for `c1cc(CN2CCN(CCN3CCOCC3)CC2)cc(-c2ccc(-c3nc4ccccc4[nH]3)cc2)c1` was 130 nM; that for `O=C(Nc1ccc(-c2nc3ccccc3[nH]2)cc1)c1ccc(Cl)s1` was 590 nM. The value for `O=C(N[C@H]1CCN(Cc2ccc(OC3CCN(Cc4ccccc4)CC3)c(Cl)c2)C1)c1ccc(Cl)c(Cl)c1` was 810 nM. To `CCN(CCNC(=O)Nc1cc(C(F)(F)F)cc(C(F)(F)F)c1)c1cccc(C)c1` belongs 800 nM; to `NS(=O)(=O)c1ccccc1Nc1nc(Nc2ccc(N3CCOCC3)cc2)nc2c1CCC2`, 670 nM.

`O=C(NCCSCc1c(F)cccc1Cl)c1cnc2c(c1)nc(-c1cnc(-c3ccccc3)[nH]1)n2CCc1cnc[nH]1`: the 50% inhibitory concentration (IC50) is 810 nM.

With `Cc1ccc(NC(=O)c2ccc(-c3cc4cc(Cl)c(Cl)cc4[nH]3)cc2)cc1OCCN1CCCC1`, the concentration for half-maximal inhibition (IC50) came to 990 nM. To `COc1ccc2c(c1C1CCN(CCCCNC(=O)c3ccc(-c4ccc(Cl)cn4)cc3)CC1)CCCC2` belongs 1020 nM. The value for `Cc1cc(O)c2c(c1)OC(C)(C)C=C2C1=CCN(Cc2ccccc2)CC1` was 790 nM; that for `O=C(Nc1ccc(CN2CCN(S(=O)(=O)c3cccc(Cl)c3)CC2)cc1)c1cccs1` was 1080 nM; that for `O=C(Nc1cccc(C(F)(F)F)c1)c1cccc(S(=O)(=O)NCC2CCN(CC3CCCCC3)CC2)c1` was 1470 nM. Molecule `c1ccc2[nH]c(-c3ccc(-c4ccc(CN5CCN(CCN6CCOCC6)CC5)cc4)s3)nc2c1` had an IC50 of 280 nM.

Take `COc1ccc(OCC(=O)Nc2nc(-c3ccc(OC)cc3)c(C)s2)cc1`: the IC50 was 1950 nM. Take `CCOC(=O)N1CCN(CCCCNc2c3ccc(Cl)cc3nc3ccc(OC)cc23)CC1`: the half-inhibitory concentration (IC50) is 120 nM. To `Cc1cc(C(=O)Nc2ccc3c(c2)CCN3C2CCN(Cc3csc4ccccc34)C2)no1` (centres undefined) belongs 120 nM; to `CCC(CC)NCc1c(O)ccc2c(CNC(CC)CC)c(O)ccc12`, 390 nM; to `COc1ccc2ncc(Cl)c(CCN3CCC(NCc4ccc5c(n4)NC(=O)CS5)CC3)c2c1`, 590 nM. To `CCCCCN1CCC(NC(=O)c2ccc(C(=O)Nc3ccc(C(C)C)cc3)cc2)CC1` belongs 850 nM.

`CCCCN(CCCC)CCCCNc1c2ccccc2nc2ccccc12` registered a half-inhibitory concentration (IC50) of 150 nM. Against the preceding molecule, the IC50 is about 5.7-fold lower. To `O=C(Cc1cccc(OCCCN(Cc2cccc(C(F)(F)F)c2Cl)CC(c2ccccc2)c2ccccc2)c1)NCc1ccco1` belongs 940 nM; to `COc1ccc2nccc([C@@H](O)CN3CCC(NC(=O)/C=C/c4ccc5[nH]c(=O)ccc5c4)CC3)c2c1`, 970 nM; to `N#Cc1ccc(NC(=NC2CCN(Cc3ccccc3)CC2)Nc2ccccc2Cl)c(O)c1`, 300 nM.
